The conditions of data set [1]: cited from earlier work.
Data set [2] deals with Patient-derived fibroblasts (AD patient, affected cells). As to the kind of experiment: Reversal of the AD-signature (mitochondrial behaviour variables V3, V5, V7, V11, V19) by dynamic imaging of MitoTracker green-labelled live cells. Type of data set: cell-based, human. Particulars: for overall rescue of the diseased (AD) phenotype, weighted by discriminant equation: 30 min incubation, healthy control=100%, AD control=0%; for overall rescue / reversal of the AD-signature, dose-response: across tested doses (0.05/0.1 to 10 μM). The protocol:
Fibroblasts were labelled with MitoTracker green, a cell-permeant mitochondrial dye not sensitive to mitochondrial membrane potential, for 30 minutes. Images were recorded from an epifluorescence microscope continuously for 6 minutes. Cells were kept at 37° C. for the duration of the image capture. For each experimental condition, 3 to 15 cells were recorded per well from three independent plates, i.e. up to 6000 individual mitochondria. The maximum duration for data acquisition was 30 minutes (i.e. five cells observed during 6 min). Images were captured with a Zeiss Axioplan II microscope along three dimensions in space and in time.
Patient-derived fibroblasts were cultured in DMEM containing 15% fetal calf serum and 0.5% DMSO, a concentration known to be inert on the mitochondrial behaviour.
[…] These concentrations are consistent with circulating levels of most drugable small molecules. They are within the range of doses centered on cMax when PK/PD (Pharmacokinetic/Pharmacodynamic) studies are available.
The negative control consists in affected cells treated with the vehicle only (DMSO), the positive control consists in healthy cells treated with the vehicle only (DMSO).
Reference compounds were tested on affected cells and compared to the 2 controls.
All raw data were expressed as a percent of control values (Healthy control=100%, AD control=0%).
Data analysis of the signature variables was particularly tuned to identify bifurcation in the logic of the descriptor measured. These bifurcations and the type of adaptation put in place by the mitochondrial reticular network give us significant insights on how the cell adapts to the test element. Impact of the disease on each individual variable was analyzed through a classical linear analysis with an analysis of variance (ANOVAs). Significant differences between groups are sought through a Bonferroni post-hoc analysis.

Where [3] appears, read: across tested doses (0.1, 1, 10 μM).
The mark [4] stands for this setting: across tested doses (0.1, 1, 10 μM; imatinib also 0.05 μM).

SMILES strings stand for the structures.

On to `Oc1ccc(C=Cc2cc(O)cc(O)c2)cc1` [Resveratrol], for which the bioavailability result in data set [1] is reported as “poor bioavailability”. Besides, the “overall rescue of the diseased (AD) phenotype, weighted by discriminant equation” value (shortened to “overall rescue … by discriminant equation”) in data set [2] (0.1 μM) is given as “did not provide rescue to the AD phenotype but a detrimental effect with worsening of the diseased status”. Moreover, in data set [2] (1 μM), the “overall rescue … by discriminant equation” value is “did not provide rescue to the AD phenotype but a detrimental effect with worsening of the diseased status”. Also, the “overall rescue … by discriminant equation” value in data set [2] (10 μM) turned out to be 63%. Further, the “overall rescue / reversal of the AD-signature, dose-response” value in data set [2] is listed as “ability to reverse the AD-signature in a dose-dependent manner”. For the same molecule, in data set [2] (setting [3]), the “V5 (average cell area or dispersion descriptor of the areas of cells), % of phenotypic rescue” value is given as “seesaw effects”; the “V7 (total area of regions containing entwined mitochondria to the total cell area), % of phenotypic rescue” value is given as “seesaw effects”; the “V19 (frequency of mitochondria displaying an area between 2.6 and 3.1 μm^2), % of phenotypic rescue” value was “greatly worsened the disease-phenotype”. Moreover, in data set [2] (setting [4]), the “V3 (dispersion descriptor of the moving speeds of mitochondria), % of phenotypic rescue” value was “efficient in reversing the disease phenotype” and the “V11 (cell area covered with mitochondria), % of phenotypic rescue” value is recorded as “greatly worsened the disease-phenotype”.

Regarding `Cc1ccc(NC(=O)c2ccc(CN3CCN(C)CC3)cc2)cc1Nc1nccc(-c2cccnc2)n1` [Imatinib], in data set [2] (0.05 μM), the “V3 (dispersion descriptor of the moving speeds of mitochondria), % of phenotypic rescue” value was “not affected”; the “V5 (average cell area or dispersion descriptor of the areas of cells), % of phenotypic rescue” value is “level comparable to that of healthy subject-derived cells”; the “V7 (total area of regions containing entwined mitochondria to the total cell area), % of phenotypic rescue” value is on record as “level comparable to that of healthy subject-derived cells”; the “V11 (cell area covered with mitochondria), % of phenotypic rescue” value is on record as “not affected”. Besides, in data set [2] (0.05 μM), the “V19 (frequency of mitochondria displaying an area between 2.6 and 3.1 μm^2), % of phenotypic rescue” value is listed as “level comparable to that of healthy subject-derived cells”; the “overall rescue … by discriminant equation” value turned out to be 54%. In data set [2] (setting [4]), the “V3 (dispersion descriptor of the moving speeds of mitochondria), % of phenotypic rescue” value is on record as “tended to improve with increasing doses” and the “V11 (cell area covered with mitochondria), % of phenotypic rescue” value is reported as “worsened”. Moreover, the “overall rescue of the diseased (AD) phenotype” value in data set [2] (doses lower than 0.05 μM (not shown)) is listed as “no effect”.

On to `CC(=O)[C@H]1CC[C@H]2[C@@H]3CC[C@H]4C[C@H](O)CC[C@]4(C)[C@H]3CC[C@]12C` [Allopregnanolone], for which the “overall rescue … by discriminant equation” value in data set [2] (1 μM) came out at 36%. The “overall rescue … by discriminant equation” value in data set [2] (10 μM) was “provided a dose-dependent rescue”. Moreover, the “V5 (average cell area or dispersion descriptor of the areas of cells), % of phenotypic rescue” value in data set [2] (1 and 10 μM) is “rescue was obtained”. In data set [2], the “overall rescue / reversal of the AD-signature, dose-response” value is listed as “ability to reverse the AD-signature in a dose-dependent manner”. Further, in data set [2] (setting [3]), the “V7 (total area of regions containing entwined mitochondria to the total cell area), % of phenotypic rescue” value was “detrimental at the lowest tested dose and tended to improve with increasing concentration of the drug but not to a level where the disease phenotype was reversed”; the “V19 (frequency of mitochondria displaying an area between 2.6 and 3.1 μm^2), % of phenotypic rescue” value is given as “no effect”. Besides, in data set [2] (setting [4]), the “V3 (dispersion descriptor of the moving speeds of mitochondria), % of phenotypic rescue” value is reported as “rescue was obtained at all tested doses”; the “V11 (cell area covered with mitochondria), % of phenotypic rescue” value is “detrimental at the lowest tested dose and tended to improve with increasing concentration of the drug but not to a level where the disease phenotype was reversed”.

The record behind these values is US20160223525A1, “METHOD OF SCREENING FOR COMPOUNDS USEFUL IN THE TREATMENT OF ALZHEIMER DISEASE” (INNOVATIVE CONCEPTS IN DRUG DEVELOPMENT, priority 2013, published 2016).
